Laboratory results reported in US12612426B2, “Aryl glucoside derivative” (Shanghai Zheye Biotechnology Co. Ltd., priority 2020, dated 2026).

What was measured:
[1] = Lipid and water solubility of click-chemistry candidate compound compared with Example 4; assay type: physicochemical
From the text: The compound of Example 4, copper sulfate, and a cyclopropyl azide compound (refer to Chemische Berichte (1985), 118(4), 1564-1574; Science of Synthesis (2010), 41, 543-612; Nature (London, United Kingdom) (2019), 574(7776), 86-89) were stirred and reacted at room temperature, and after the reaction was completed, target compounds could be prepared by silica gel column chromatography. Rf: 0.16 (dichloromethane:methanol=10:1).

[2] = molecular target: T1, SGLT1 (Homo sapiens, UniProt P13866); assay: SGLT1 inhibitor activity experiment 1; assay type: cell-based
T1 sequence (P13866 1-664): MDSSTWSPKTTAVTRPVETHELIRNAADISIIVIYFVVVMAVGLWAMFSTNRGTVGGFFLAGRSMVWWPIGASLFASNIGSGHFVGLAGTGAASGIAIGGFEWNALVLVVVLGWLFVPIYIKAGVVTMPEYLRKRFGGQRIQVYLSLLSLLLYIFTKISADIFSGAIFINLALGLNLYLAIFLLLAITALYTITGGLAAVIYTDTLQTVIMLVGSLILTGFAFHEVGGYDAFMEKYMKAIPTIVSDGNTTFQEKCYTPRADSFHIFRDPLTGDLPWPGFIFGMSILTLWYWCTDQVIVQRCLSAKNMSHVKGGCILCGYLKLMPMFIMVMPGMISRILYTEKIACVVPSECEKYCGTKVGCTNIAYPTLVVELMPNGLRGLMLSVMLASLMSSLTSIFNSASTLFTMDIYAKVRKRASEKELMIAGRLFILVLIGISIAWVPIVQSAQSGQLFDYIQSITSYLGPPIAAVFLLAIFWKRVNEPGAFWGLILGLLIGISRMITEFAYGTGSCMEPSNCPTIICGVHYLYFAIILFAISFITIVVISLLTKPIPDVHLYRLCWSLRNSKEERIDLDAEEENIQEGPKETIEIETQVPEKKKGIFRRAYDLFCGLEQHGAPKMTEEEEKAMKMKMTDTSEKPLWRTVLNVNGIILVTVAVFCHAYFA
Description: The inhibitory activity of SGLT1 was tested with reference to the method described in document (Journal of Medicinal Chemistry 2017, 60, 710-721, Discovery of LX2761, a Sodium-Dependent Glucose Cotransporter 1 (SGLT1) Inhibitor Restricted to the Intestinal Lumen, for the Treatment of Diabetes).

[3] = Oral glucose tolerance test (OGTT) after continuous administration in rats for 14 days; assay type: in vivo, SD rats; settings: for blood sugar level in OGTT: 0.009 mg/kg oral gavage for 14 days, OGTT on day 15; for loose stools: 0.009 mg/kg oral gavage, within 48 hours before and after the experiment
Description: • Experimental animals: SPF male SD rats; • Compound preparation: an appropriate amount of the compounds of Example 1, Example 3, and Example 4 were weighed, and uniformly suspended with an appropriate amount of 0.5% CMC-Na solution; • Preparation of glucose solution: an appropriate amount of glucose powder was weighed and dissolved with an appropriate amount of pure water; • Dosage and method of administration: 0.009 mg/kg, oral gavage.
Experimental process: the animals were fed a normal diet with consecutive administration for 14 days, and the glucose tolerance test was performed on day 15, blood glucose was detected before administration (−30 min), before giving glucose (0 min), and 10, 30, 60, and 120 min after giving glucose solution, and the defecation of animals was observed.

[4] = molecular target: T1, SGLT1; assay: hSGLT1 inhibitor activity experiment 2: 2-NBDG uptake by HEK293 cells stably expressing human SGLT1; assay type: cell-based; set-up: expressed in transfected cells; settings: read-out: SGLT1 Inhibitory Activity
Description: Inhibitory activity testing was performed with reference to a similar method described in document [Acta Pharmaceutica Sinica 2017, 52 (6): 897-903; Nature Protocols (2007), 2(3), 753-762; Journal of Biochemical and Biophysical Methods (2005), 64(3), 207-215; Diabetes Technology & Therapeutics (2011), 13(7), 743-775].
In this experiment, the in vitro activity assay was evaluated using the uptake of 2-NBDG (2-Deoxy-2-[(7-nitro-2,1,3-benzoxadiazol-4-yl)amino]-D-glucose, CAS NO: 186689-07-6) by human embryonic kidney epithelial cells (HEK293, stably expressing human SGLT1), and the SGLT1 inhibitory activity of the target compound was determined by measuring its half-maximal inhibitory concentration (IC50).
HEK293 cells that can stably express human SGLT1 gene were inoculated into a 96-well clear-bottom black plate containing DMEM medium. The cells were incubated at 37° C., 5% CO2 in a cell incubator. The medium in the 96-well plate was aspirated, and the plate was treated with low-glucose serum-free DMEM medium, and washed once with non-specific uptake buffer and once with Na^+-dependent uptake buffer. Uptake buffer containing test compound was added to each well of cells, followed by uptake buffer containing 2-NBDG for glucose uptake, and the cell plate was incubated at 37° C., 5% CO2. The compounds were gradiently diluted. The uptake reaction was stopped by removing the culture medium, and after washing the cells with ice-cold uptake buffer, the washing solution was removed. The cells were lysed by adding NaOH, and the content of 2-NBDG in the cells was detected by a fluorescence microplate reader. The protein concentration of the lysate was measured by BCA method, the uptake of 2-NBDG was quantified by fluorescence intensity/protein content, and the obtained data were analyzed using GraphPad Prism to determine the median inhibitory concentration (IC50) of the compound to be tested. […]

[5] = Pharmacokinetic study in rats; assay type: in vivo, SD rats; settings: 10 mg/kg oral gavage
Description: 5. Pharmacokinetic Study in Rats • Experimental animals: SPF male SD rats; • Dosage and method of administration: 10 mg/kg, oral gavage. • Research compound: Dapagliflozin, the compound of Example 4, the compound of Example 6, and the comparative compound 6; • Test method: Before administration (0), and 1, 4, 8, and 24 hours after administration, 0.2 ml of blood was collected from orbital venous plexus, anticoagulated with heparin, and plasma was collected.
Note: The comparative compound 6 is the compound numbered “6” in the document (Journal of Medicinal Chemistry 2017, 60, 710-721, Discovery of LX2761, a Sodium-Dependent Glucose Cotransporter 1 (SGLT1) Inhibitor Restricted to the Intestinal Lumen, for the Treatment of Diabetes). It was prepared and identified according to the synthetic method described in the document.

SMILES	IC50 [2]	IC50 [4]	further results
CS[C@H]1O[C@@H](c2ccc(C)c(Cc3ccc(CCCC(=O)NC(C)(C)C(=O)NCCN(C)Cc4cn(C5CC5)nn4)cc3)c2)[C@H](O)[C@@H](O)[C@@H]1O	–	–	lipid solubility compared with Example 4 [1]: better; water solubility compared with Example 4 [1]: better
CS[C@H]1O[C@@H](c2ccc(C)c(Cc3ccc(CCCC(=O)NC(C)(C)C(=O)NCCN(C)Cc4ccccc4)cc3)c2)[C@H](O)[C@@H](O)[C@@H]1O [Example 3]	–	0.83 nM	blood sugar level in OGTT [3]: significantly reduce the blood sugar level of rats; loose stools [3]: no loose stools were observed
C#CCN(C)CCNC(=O)C(C)(C)NC(=O)CCOc1ccc(Cc2cc([C@@H]3O[C@H](SC)[C@@H](O)[C@H](O)[C@H]3O)ccc2C)cc1 [Example 5]	< 50 nM	–	–
CS[C@H]1O[C@@H](c2ccc(C)c(Cc3ccc(CCCC(=O)NC(C)(C)C(=O)NCCN4CCN(C)CC4)cc3)c2)[C@H](O)[C@@H](O)[C@@H]1O [Example 2]	–	1.27 nM	–
CS[C@H]1O[C@@H](c2ccc(C)c(Cc3ccc(CCCC(=O)NC(C)(C)C(=O)NCCN4CCCC4)cc3)c2)[C@H](O)[C@@H](O)[C@@H]1O [Example 1]	–	0.67 nM	blood sugar level in OGTT [3]: significantly reduce the blood sugar level of rats; loose stools [3]: no loose stools were observed

More lines, main results first:

IC50 [2]	IC50 [4]	SMILES	further results
< 50 nM	–	C#CCN(C)CCNC(=O)C(C)(C)NC(=O)CCOc1ccc(Cc2cc([C@@H]3O[C@H](SC)[C@@H](O)[C@H](O)[C@H]3O)ccc2C#C)cc1 [Example 8]	–
< 50 nM	–	C#CCN(C)CCNC(=O)C(C)(C)NC(=O)C/C=C/c1ccc(Cc2cc([C@@H]3O[C@H](SC)[C@@H](O)[C@H](O)[C@H]3O)ccc2C)cc1 [Example 7]	–
< 50 nM	–	C#CCN(C)CCNC(=O)C(C)(C)NC(=O)CCOCc1ccc(Cc2cc([C@@H]3O[C@H](SC)[C@@H](O)[C@H](O)[C@H]3O)ccc2C)cc1 [Example 6]	drug concentration in plasma [5]: did not reach the detection limit
